Results on 35 molecules are retold here after patent US9637491B2, “Pyrazolo[4,3-D]pyrimidines as kinase inhibitors” (Origenis GmbH, priority 2012, dated 2017).

Broadly, the IC50 is the concentration that inhibits the measured activity by half. Low values mean greater potency in that assay, high ones weaker potency in that assay.

The target of the experiment is T1, SYK kinase (Homo sapiens, UniProt P43405).
T1 construct: purchased Invitrogen, Carlsbad
In words: SYK assay (OMNIA Kinase Assay, Invitrogen). To be noted: SYK Activities; 1 mM ATP, 10 μM Omnia Peptide Substrate Tyr 7, 30° C. In kind it is biochemical. In short, it runs like this:
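Continuous-read fluorescence kinase assay: SOX-labelled Tyr 7 peptide (10 μM) with 1 mM ATP and 0.2 mM DTT, 30° C, reaction started by adding SYK. Fluorescence (ex 360/em 485 nm) read every 30 s for 30 min. IC50 from sigmoidal fit of reaction velocity versus inhibitor concentration.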
Take `c1nc(-c2nc(Nc3cnn(C4CCOCC4)c3)c3[nH]ncc3n2)co1` [Example 127, 5-(oxazol-4-yl)-N-(1-(tetrahydro-2H-pyran-4-yl)-1H-pyrazol-4-yl)-1H-pyrazolo[4,3-d]pyrimidin-7-amine]: the IC50 fell in the range of 100 to 1000 nM. Turning to `COCCn1cc(Nc2nc(-c3cocn3)nc3cn[nH]c23)cn1` [Example 128, N-(1-(2-methoxyethyl)-1H-pyrazol-4-yl)-5-(oxazol-4-yl)-1H-pyrazolo[4,3-d]pyrimidin-7-amine], the IC50 was in the range of 100 to 1000 nM. For `CN1CCC(n2cc(Nc3nc(-c4cocn4)nc4cn[nH]c34)cn2)CC1` [Example 129, N-(1-(1-methylpiperidin-4-yl)-1H-pyrazol-4-yl)-5-(oxazol-4-yl)-1H-pyrazolo[4,3-d]pyrimidin-7-amine] the value was 100 to 1000 nM; for `CC(=O)N1CCC(n2cc(Nc3nc(-c4cocn4)nc4cn[nH]c34)cn2)CC1` [Example 130, 1-(4-(4-((5-(oxazol-4-yl)-1H-pyrazolo[4,3-d]pyrimidin-7-yl)amino)-1H-pyrazol-1-yl)piperidin-1-yl)ethan-1-one], 100 to 1000 nM; for `COCCn1cc(Nc2nc(-c3ccc4cn[nH]c4c3)nc3cn[nH]c23)cn1` [Example 131, 5-(1H-indazol-6-yl)-N-(1-(2-methoxyethyl)-1H-pyrazol-4-yl)-1H-pyrazolo[4,3-d]pyrimidin-7-amine], 10 to 100 nM. In turn, `CN1CCC(n2cc(Nc3nc(-c4ccc5cn[nH]c5c4)nc4cn[nH]c34)cn2)CC1` [Example 132, 5-(1H-indazol-6-yl)-N-(1-(1-methylpiperidin-4-yl)-1H-pyrazol-4-yl)-1H-pyrazolo[4,3-d]pyrimidin-7-amine] came in with an IC50 of 10 to 100 nM. With `CC(=O)N1CCC(n2cc(Nc3nc(-c4ccc5cn[nH]c5c4)nc4cn[nH]c34)cn2)CC1` [Example 133, 1-(4-(4-((5-(1H-indazol-6-yl)-1H-pyrazolo[4,3-d]pyrimidin-7-yl)amino)-1H-pyrazol-1-yl)piperidin-1-yl)ethan-1-one] the figure was 10 to 100 nM; with `c1nn(C2CCOCC2)cc1Nc1nc(-c2ccc3cn[nH]c3c2)nc2cn[nH]c12` [Example 134, 5-(1H-indazol-6-yl)-N-(1-(tetrahydro-2H-pyran-4-yl)-1H-pyrazol-4-yl)-1H-pyrazolo[4,3-d]pyrimidin-7-amine], under 10 nM; with `c1cc(-c2nc(Nc3cnn(C4CCOCC4)c3)c3[nH]ncc3n2)co1` [Example 146, 5-(furan-3-yl)-N-(1-(tetrahydro-2H-pyran-4-yl)-1H-pyrazol-4-yl)-1H-pyrazolo[4,3-d]pyrimidin-7-amine], under 10 nM. Regarding `c1cncc(-c2nc(Nc3ccc(N4CCOCC4)cc3)c3n[nH]cc3n2)c1` [Example 162, N-(4-morpholinophenyl)-5-(pyridin-3-yl)-2H-pyrazolo[4,3-d]pyrimidin-7-amine], the IC50 fell in the range of 100 to 1000 nM. With `Cn1ccc(-c2nc(Nc3ccc(N4CCOCC4)cc3)c3[nH]ncc3n2)n1` [Example 175, 5-(1-methyl-1H-pyrazol-3-yl)-N-(4-morpholinophenyl)-1H-pyrazolo[4,3-d]pyrimidin-7-amine] the figure was 100 to 1000 nM; with `CC(C)(C#N)n1cc(Nc2nc(C3CC3)nc3cn[nH]c23)cn1` [Example 177, 2-(4-((5-cyclopropyl-1H-pyrazolo[4,3-d]pyrimidin-7-yl)amino)-1H-pyrazol-1-yl)-2-methylpropanenitrile], 100 to 1000 nM.

`c1nn(C2CCOCC2)cc1Nc1nc(-c2ccc3[nH]ncc3c2)nc2cn[nH]c12` [Example 178, 5-(1H-indazol-5-yl)-N-(1-(tetrahydro-2H-pyran-4-yl)-1H-pyrazol-4-yl)-1H-pyrazolo[4,3-d]pyrimidin-7-amine] yielded an IC50 of 10 to 100 nM. With `c1cc(N2CCOCC2)ccc1Nc1nc(-c2ccc3[nH]ncc3c2)nc2cn[nH]c12` [Example 179, 5-(1H-indazol-5-yl)-N-(4-morpholinophenyl)-1H-pyrazolo[4,3-d]pyrimidin-7-amine] the figure was 10 to 100 nM; with `CC(=O)N1CCN(c2ccc(Nc3nc(C(C)C)nc4cn[nH]c34)cc2)CC1` [Example 180, 1-(4-(4-((5-isopropyl-1H-pyrazolo[4,3-d]pyrimidin-7-yl)amino)phenyl)piperazin-1-yl)ethan-1-one], 100 to 1000 nM.

Consider `CC(C)c1nc(Nc2ccc(N3CCOCC3)cc2)c2[nH]ncc2n1` [Example 181, 5-isopropyl-N-(4-morpholinophenyl)-1H-pyrazolo[4,3-d]pyrimidin-7-amine], for which the IC50 lay within 100 to 1000 nM. With `CC(C)c1nc(Nc2cnn(C3CCOCC3)c2)c2[nH]ncc2n1` [Example 182, 5-isopropyl-N-(1-(tetrahydro-2H-pyran-4-yl)-1H-pyrazol-4-yl)-1H-pyrazolo[4,3-d]pyrimidin-7-amine] the figure was 100 to 1000 nM; with `CC(C)c1nc(Nc2cnn(C3CCN(C)CC3)c2)c2[nH]ncc2n1` [Example 184, 5-isopropyl-N-(1-(1-methylpiperidin-4-yl)-1H-pyrazol-4-yl)-1H-pyrazolo[4,3-d]pyrimidin-7-amine], 100 to 1000 nM; with `COCCn1cc(Nc2nc(C(C)C)nc3cn[nH]c23)cn1` [Example 185, 5-isopropyl-N-(1-(2-methoxyethyl)-1H-pyrazol-4-yl)-1H-pyrazolo[4,3-d]pyrimidin-7-amine], 100 to 1000 nM. With `CC(=O)N1CCC(n2cc(Nc3nc(C(C)C)nc4cn[nH]c34)cn2)CC1` [Example 186, 1-(4-(4-((5-isopropyl-1H-pyrazolo[4,3-d]pyrimidin-7-yl)amino)-1H-pyrazol-1-yl)piperidin-1-yl)ethan-1-one] the figure was 100 to 1000 nM; with `CC(=O)N1CCN(c2ccc(Nc3nc(-c4cnn(C)c4)nc4cn[nH]c34)cc2)CC1` [Example 187, 1-(4-(4-((5-(1-methyl-1H-pyrazol-4-yl)-1H-pyrazolo[4,3-d]pyrimidin-7-yl)amino)phenyl)piperazin-1-yl)ethan-1-one], 10 to 100 nM. With `COCCn1cc(Nc2nc(-c3cnn(C)c3)nc3cn[nH]c23)cn1` [Example 188, N-(1-(2-methoxyethyl)-1H-pyrazol-4-yl)-5-(1-methyl-1H-pyrazol-4-yl)-1H-pyrazolo[4,3-d]pyrimidin-7-amine] the figure was 100 to 1000 nM; with `CC(=O)N1CCC(n2cc(Nc3nc(-c4cnn(C)c4)nc4cn[nH]c34)cn2)CC1` [Example 189, 1-(4-(4-((5-(1-methyl-1H-pyrazol-4-yl)-1H-pyrazolo[4,3-d]pyrimidin-7-yl)amino)-1H-pyrazol-1-yl)piperidin-1-yl)ethan-1-one], under 10 nM; with `CN1CCC(n2cc(Nc3nc(-c4cnn(C)c4)nc4cn[nH]c34)cn2)CC1` [Example 190, 5-(1-methyl-1H-pyrazol-4-yl)-N-(1-(1-methylpiperidin-4-yl)-1H-pyrazol-4-yl)-1H-pyrazolo[4,3-d]pyrimidin-7-amine], 10 to 100 nM.

`COCCn1cc(Nc2nc(C3CCC3)nc3cn[nH]c23)cn1` [Example 191, 5-cyclobutyl-N-(1-(2-methoxyethyl)-1H-pyrazol-4-yl)-1H-pyrazolo[4,3-d]pyrimidin-7-amine] gave an IC50 of 10 to 100 nM. With `CC(=O)N1CCN(c2ccc(Nc3nc(C4CCC4)nc4cn[nH]c34)cc2)CC1` [Example 192, 1-(4-(4-((5-cyclobutyl-1H-pyrazolo[4,3-d]pyrimidin-7-yl)amino)phenyl)piperazin-1-yl)ethan-1-one] the figure was under 10 nM.

`O=C(c1ccc(Nc2nc(C3CCC3)nc3cn[nH]c23)cc1F)N1CCOCC1` [Example 193, (4-((5-cyclobutyl-1H-pyrazolo[4,3-d]pyrimidin-7-yl)amino)-2-fluorophenyl)(morpholino)methanone] showed an IC50 of 100 to 1000 nM. With `COCCn1cc(Nc2nc(C3CC3)nc3cn[nH]c23)cn1` [Example 194, 5-cyclopropyl-N-(1-(2-methoxyethyl)-1H-pyrazol-4-yl)-1H-pyrazolo[4,3-d]pyrimidin-7-amine] the figure was 100 to 1000 nM; with `COCCn1cc(Nc2nc(-c3ccco3)nc3cn[nH]c23)cn1` [Example 195, 5-(furan-2-yl)-N-(1-(2-methoxyethyl)-1H-pyrazol-4-yl)-1H-pyrazolo[4,3-d]pyrimidin-7-amine], 10 to 100 nM. For `CC(=O)N1CCC(n2cc(Nc3nc(-c4ccco4)nc4cn[nH]c34)cn2)CC1` [Example 196, 1-(4-(4-((5-(furan-2-yl)-1H-pyrazolo[4,3-d]pyrimidin-7-yl)amino)-1H-pyrazol-1-yl)piperidin-1-yl)ethan-1-one] the value was under 10 nM; for `O=C(c1ccc(Nc2nc(-c3ccco3)nc3cn[nH]c23)cc1F)N1CCOCC1` [Example 197, (2-fluoro-4-((5-(furan-2-yl)-1H-pyrazolo[4,3-d]pyrimidin-7-yl)amino)phenyl)(morpholino)methanone], 100 to 1000 nM; for `CN1CCC(n2cc(Nc3nc(-c4ccco4)nc4cn[nH]c34)cn2)CC1` [Example 198, 5-(furan-2-yl)-N-(1-(1-methylpiperidin-4-yl)-1H-pyrazol-4-yl)-1H-pyrazolo[4,3-d]pyrimidin-7-amine], under 10 nM. With `COCCn1cc(Nc2nc(-c3ccoc3)nc3cn[nH]c23)cn1` [Example 199, 5-(furan-3-yl)-N-(1-(2-methoxyethyl)-1H-pyrazol-4-yl)-1H-pyrazolo[4,3-d]pyrimidin-7-amine] the figure was 100 to 1000 nM; with `CC(=O)N1CCC(n2cc(Nc3nc(-c4ccoc4)nc4cn[nH]c34)cn2)CC1` [Example 200, 1-(4-(4-((5-(furan-3-yl)-1H-pyrazolo[4,3-d]pyrimidin-7-yl)amino)-1H-pyrazol-1-yl)piperidin-1-yl)ethan-1-one], under 10 nM. As for `O=C(c1ccc(Nc2nc(-c3ccoc3)nc3cn[nH]c23)cc1F)N1CCOCC1` [Example 201, (2-fluoro-4-((5-(furan-3-yl)-1H-pyrazolo[4,3-d]pyrimidin-7-yl)amino)phenyl)(morpholino)methanone], the IC50 is 100 to 1000 nM.
